Reference: PubChem BioAssay AID179 (DTP/NCI, 2004)
Activity calls are given as the source filed them.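 How the source made its calls: active means compounds giving half or more protection of infected cells from virus-caused growth loss, again on retest; inactive means the rest.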 Where a SMILES comes first, the peptide text is derived from it. The star is where a group is joined. Cbz = O=C(OCc1ccccc1)*; Boc = CC(C)(C)OC(=O)*; NHNH2 = NN*

Tested on: CEM cells HIV-1 protection, formazan growth assay
Experiment: NCI AIDS Antiviral Assay
Details: for IC50: measured here: growth of uninfected CEM cells
Procedure: The ability of compounds to protect human CEM cells from HIV-1 infection is measured as a screen for new compounds capable of inhibiting the HIV virus. Five concentrations of drug were tested on uninfected and infected cells and cell growth was measured using a soluble formazan assay. […] Compounds that provided at least 50% protection were retested. Compounds that provided at least 50% protection on retest were listed as moderately active. Compounds that reproducibly provided 100% protection were listed as confirmed active. […] Note that the inability to provide protection could be due to toxicity.

SMILES	EC50 [µM]	IC50 [µM]	outcome
NC(N)=NS(=O)(=O)c1ccc(NNc2c3ccccc3nc3c(C(=O)Nc4ccc(S(=O)(=O)Nc5ncccn5)cc4)cccc23)cc1	> 100	22.9	
CCOC(=O)c1ccc(Nc2nc3ccc(C(F)(F)F)cc3nc2C(=O)OCC)cc1			inactive
C/C(=N\NC(=S)N1CCN(c2ccccn2)CC1)c1ncccn1	> 39.8	0.0479	
CC(=O)OCC1OC(Nn2c(=O)[nH]c3ccccc3c2=O)C(OC(C)=O)C(OC(C)=O)C1OC(C)=O (stereo unspecified)	> 158	117	
O=C1NC(=O)/C(=C\c2ccncc2)N1	> 200	> 200	
CC(NC(=O)C(NC(=O)OC(C)(C)C)C(C)C)C(=O)N1CCCC1C(=O)NCC(=O)NC(C(=O)NCC(=O)O)C(C)C (stereo unspecified) (Boc-VAPGVG-OH; configuration not given here)	> 200	> 200	
CC(=O)NS(=O)(=O)c1ccc(-n2sc3ccccc3c2=O)cc1	12.3	30.9	
O=C(Nc1ncnc2c1ncn2C1CC(OC(=O)c2ccc([N+](=O)[O-])cc2)C(COC(=O)c2ccc([N+](=O)[O-])cc2)O1)c1ccccc1 (stereo unspecified)			inactive
O=C(Nc1ccccn1)c1ccccc1[Se][Se]c1ccccc1C(=O)Nc1ccccn1	3.55	8.13	
CCOC(=O)NC(Nc1ccc([N+](=O)[O-])cc1)(C(F)(F)F)C(F)(F)F	> 200	66.1	
CCN(CC)c1ccc2cc(-c3nc4ccccc4n3C)c(=O)oc2c1	> 7.59	0.437	
O=Nc1ccc(N(CCO)CCO)cc1	> 200	2.95	
COc1cc(OC)c(CSCC(NC(=O)OCC2c3ccccc3-c3ccccc32)C(=O)O)c(OC)c1 (stereo unspecified)	> 200	105	
c1cncc(C2(c3cc4ccccc4[nH]3)COCO2)c1 (stereo unspecified)	> 200	126	
CC(=O)CN=C(C)NNc1ccc([N+](=O)[O-])cc1[N+](=O)[O-]	> 200	60.3	
COC(=O)/C=C(C)/C=C/c1c(C)c(C(C)=O)c(C)n1C	> 129	> 129	
CC(C)CC(NC(=O)C(CO)NC(=O)OCc1ccccc1)C(=O)NC(Cc1ccc(O)cc1)C(=O)NN (stereo not drawn) (Cbz-Ser-Leu-Tyr-NHNH2; configuration not given here)			inactive
O=[N+]([O-])c1cc(F)ccc1S(=O)(=O)c1ccccc1	> 200	35.5	
O=c1ccn([C@@H]2C[C@@H]2CO)c(=O)[nH]1			inactive
CN(C)CC(CN(C)C)c1cccc(C(CN(C)C)CN(C)C)n1	> 741	> 741	
C=C(C)c1nc(C#N)c(N)o1	> 200	> 200	
CN(C)C1C(=O)C(C(=O)NCN2CCCC2)=C(O)C2(O)C(=O)C3=C(O)c4c(O)cccc4C(C)(O)C3CC12 (stereo unspecified)	> 63.1	53.7	

SMILES	EC50 [µM]	IC50 [µM]	outcome
O=C1N=NC(=O)c2ccccc21	> 200	> 200	
O=c1[nH]c2ccccc2c(=O)c2ccccc12	> 32.4	> 32.4	
CCCCCCCCCCCCCCCCc1c(C(=O)OC)nc(NC#N)[nH]c1=O	> 14.5	> 14.5	
O=N/C(=C(\c1ccccc1)N1CCOCC1)c1ccccc1			inactive
O=C(O)/C(=C/c1ccccc1[N+](=O)[O-])c1ccccc1	> 603	550	
COC(=O)C1(NC(=O)C(CC(=O)OCc2ccccc2)NC(=O)OCc2ccccc2)CCCCCCC1 (stereo unspecified)	> 200	11.7	
CN(C)c1nc(N(C)C)nc(N(C)CN(C)c2ccccc2)n1	> 100	> 100	
O=C1/C(=C\c2ccc([N+](=O)[O-])cc2)CS(=O)(=O)C/C1=C/c1ccc([N+](=O)[O-])cc1	> 0.2	0.0309	
COC1C(OC(=O)/C=C/C=C/C=C/C=C/C(=O)O)CCC2(CO2)C1C1(C)OC1CC=C(C)C (stereo unspecified)	> 0.2	0.178	
CCCCOC(=O)C(NC(C(=O)OCCCC)c1cc(C(C)(C)C)c(O)c(C(C)(C)C)c1)c1cc(C(C)(C)C)c(O)c(C(C)(C)C)c1 (stereo unspecified)	> 200	> 200	
CN(C)CCCn1c2c(c3ccccc31)CCCCCC2	> 200	31.6	
COC1=CCC=C(C[C@@H]2NCCc3cc(OC)c(OC)cc32)C1	> 200	> 200	
COc1ccc(-c2csc(=[N+]3CCCCC3)s2)cc1			inactive
CC1(C)C2CC(c3ccncc3)ON2C(C)(C)N1O (stereo unspecified)	> 200	> 200	
CCOC(=O)c1c(C)cc(C)nc1[S][Sn]([Br])([Br])[S]c1nc(C)cc(C)c1C(=O)OCC	40.7	51.3	
COc1ccccc1NC(=O)C1=C(C)NC(C)=C(C(=O)Nc2ccccc2OC)C1/C=C/c1ccccc1			inactive
CN1CN(c2ccccc2)C2(CCN(CCCC(=O)c3cccs3)CC2)C1=O	> 200	38.9	
COc1ccc(-c2coc3c4c(c(CC=C(C)C)c(O)c3c2=O)OC(C)(C)C=C4)cc1OC	> 100	> 100	
O=C1c2ccccc2C(=O)N1C/C=N/NS(=O)(=O)c1cccc([N+](=O)[O-])c1	> 646	> 646	
COC(=O)N1CC(=O)C(C(=O)NC23CC4CC(CC(C4)C2)C3)C1 (stereo unspecified)	> 776	141	
Cc1c(/C=N/NC(=S)Nc2ccc([N+](=O)[O-])cc2)c(=O)n(-c2ccccc2)n1C	> 200	166	
CCOC(=O)C1Cc2ccc(C)cc2C1=O (stereo unspecified)	> 200	110	
